13 compounds from patent publication US7745636B2, “Hepatitis C virus inhibitors” (Bristol-Myers Squibb Company, priority 2006, dated 2010) can be followed below.

pEC50: −log10 of the molar value.

The subject of the experiment is HCV 1b-377-neo replicon cells. Put plainly: HCV Replicon assay, HCV 1b-377-neo replicon cells. Type of experiment: cell-based, HCV 1b genotype. The following applies: Hepatitis C virus, Table 2, read-out: Range (EC50 against HCV 1b).
Regarding `COC(=O)N[C@H](C(=O)N1CCC[C@H]1c1nc(-c2cnc(-c3ccc(-c4cnc([C@@H]5CCCN5C(=O)[C@@H](NC(=O)OC)[C@@H](C)OC)[nH]4)c(F)c3)nc2)c[nH]1)[C@@H](C)OC` [Example D70, methyl ((1S,2R)-1-(((2S)-2-(5-(2-fluoro-4-(5-(2-((2S)-1-(N-(methoxycarbonyl)-O-methyl-L-threonyl)-2-pyrrolidinyl)-1H-imidazol-5-yl)-2-pyrimidinyl)phenyl)-1H-imidazol-2-yl)-1-pyrrolidinyl)carbonyl)-2-methoxypropyl) carbamate], the pEC50 (as a rule, −log10 of the EC50, conventionally taken in molar units) was 9.00 to 12.00. Take `COC(=O)N[C@@H](C)C(=O)N1CCC[C@H]1c1nc(-c2cnc(-c3ccc(-c4cnc([C@@H]5CCCN5C(=O)[C@H](C)NC(=O)OC)[nH]4)cc3)nc2)c[nH]1` [Example D73, methyl ((1S)-2-((2S)-2-(5-(4-(5-(2-((2S)-1-(N-(methoxycarbonyl)-L-alanyl)-2-pyrrolidinyl)-1H-imidazol-5-yl)-2-pyrimi-dinyl)phenyl)-1H-imidazol-2-yl)-1-pyrrolidinyl)-1-methyl-2-oxoethyl)carbamate]: the negative-log EC50 (pEC50) was 9.00 to 12.00. With `COC(=O)N[C@H](C(=O)N1CCC[C@H]1c1nc(-c2cnc(-c3ccc(-c4cnc([C@@H]5CCCN5C(=O)[C@@H](NC(=O)OC)C(C)C)[nH]4)cc3)nc2)c[nH]1)C(C)C` [Example D74, methyl ((1S)-1-(((2S)-2-(5-(2-(4-(2-((2S)-1-((2S)-2-((methoxycarbonyl)amino)-3-methylbutanoyl)-2-pyrrolidinyl)-1H-imidazol-5-yl)phenyl)-5-pyrimidinyl)-1H-imidazol-2-yl)-1-pyrrolidinyl)carbonyl)-2-methylpropyl) carbamate], the pEC50 is 9.00 to 12.00. On to `COC(=O)N[C@H](C(=O)N1CCC[C@H]1c1nc(-c2cnc(-c3ccc(-c4cnc([C@@H]5CCCN5C(=O)[C@@H](NC(=O)OC)C5CC5)[nH]4)cc3)nc2)c[nH]1)C1CC1` [Example D75, methyl ((1S)-1-cyclopropyl-2-((2S)-2-(5-(2-(4-(2-((2S)-1-((2S)-2-cyclopropyl-2-((methoxycarbonyl)amino)acetyl)-2-pyrrolidinyl)-1H-imidazol-5-yl)phenyl)-5-pyrimidinyl)-1H-imidazol-2-yl)-1-pyrrolidinyl)-2-oxoethyl)carbamate], for which the pEC50 was 9.00 to 12.00. The same measure for `CCN(CC)[C@@H](C(=O)N1CCC[C@H]1c1ncc(-c2ccc(-c3ncc(-c4c[nH]c([C@@H]5CCCN5C(=O)[C@@H](NC(=O)OC)C(C)C)n4)cn3)cc2)[nH]1)c1ccccc1` [Example D76, methyl ((1S)-1-(((2S)-2-(5-(2-(4-(2-((2S)-1-((2R)-2-(diethylamino)-2-phenylacetyl)-2-pyrrolidinyl)-1H-imidazol-5-yl)phenyl)-5-pyrimidinyl)-1H-imidazol-2-yl)-1-pyrrolidinyl)carbonyl)-2-methylpropyl) carbamate]: 9.00 to 12.00; for `CCN(CC)[C@@H](C(=O)N1CCC[C@H]1c1ncc(-c2ccc(-c3ncc(-c4c[nH]c([C@@H]5CCCN5C(=O)[C@H](C)NC(=O)OC)n4)cn3)cc2)[nH]1)c1ccccc1` [Example D77, methyl ((1S)-2-((2S)-2-(5-(2-(4-(2-((2S)-1-((2R)-2-(diethylamino)-2-phenylacetyl)-2-pyrrolidinyl)-1H-imidazol-5-yl)phenyl)-5-pyrimidinyl)-1H-imidazol-2-yl)-1-pyrrolidinyl)-1-methyl-2-oxoethyl)carbamate]: 9.00 to 12.00; for `COC(=O)N[C@H](C(=O)N1CCCC1c1ncc(-c2cc(C)c(-c3c(C)cc(-c4cnc([C@@H]5CCCN5C(=O)[C@@H](NC(=O)OC)C(C)C)[nH]4)cc3C)c(C)c2)[nH]1)C(C)C` (stereo partly shown) [Example F71]: 9.00 to 12.00.

In the case of `COC(=O)N[C@@H](C)C(=O)N(C)[C@@H](C)c1ncc(-c2ccc(-c3ccc(-c4[nH]c([C@@H]5CCCN5C(=O)[C@H](C)NC(=O)OC)nc4C(F)(F)F)cc3)cc2)[nH]1` [Example J42.a, methyl ((1S)-2-((2S)-2-(5-(4′-(2-((1S)-1-((N-(methoxycarbonyl)-L-alanyl)(methyl)amino)ethyl)-1H-imidazol-5-yl)-4-biphenylyl)-4-(trifluoromethyl)-1H-imidazol-2-yl)-1-pyrrolidinyl)-1-methyl-2-oxoethyl)carbamate], the pEC50 is 9.00 to 12.00.

Consider `COC(=O)N[C@@H](C(=O)N1CCC[C@H]1c1ncc(-c2cnc(-c3ccc(-c4[nH]c([C@@H]5CCCN5C(=O)[C@H](NC(=O)OC)c5ccccc5)nc4C(F)(F)F)cc3)nc2)[nH]1)c1ccccc1` [Example J46, methyl ((1R)-2-((2S)-2-(5-(4-(5-(2-((2S)-1-((2R)-2-((methoxycarbonyl)amino)-2-phenylacetyl)-2-pyrrolidinyl)-1H-imidazol-5-yl)-2-pyrimidinyl)phenyl)-4-(trifluoromethyl)-1H-imidazol-2-yl)-1-pyrrolidinyl)-2-oxo-1-phenylethyl) carbamate], for which the pEC50 was 9.00 to 12.00. The same measure for `CCN(CC)[C@@H](C(=O)N1CCC[C@H]1c1ncc(-c2cnc(-c3ccc(-c4[nH]c([C@@H]5CCCN5C(=O)[C@@H](c5ccccc5)N(CC)CC)nc4C(F)(F)F)cc3)nc2)[nH]1)c1ccccc1` [Example J47, (1R)-2-((2S)-2-(5-(4-(5-(2-((2S)-1-((2R)-2-(diethylamino)-2-phenylacetyl)-2-pyrrolidinyl)-1H-imidazol-5-yl)-2-pyrimidinyl)phenyl)-4-(trifluoromethyl)-1H-imidazol-2-yl)-1-pyrrolidinyl)-N,N-diethyl-2-oxo-1-phenylethanamine]: 9.00 to 12.00; for `COC(=O)N[C@H](C(=O)N1CCC[C@H]1c1ncc(-c2cnc(-c3ccc(-c4[nH]c([C@@H]5CCCN5C(=O)[C@@H](NC(=O)OC)C(C)C)nc4C(F)(F)F)cc3)nc2)[nH]1)C(C)C` [Example J48, methyl ((1S)-1-(((2S)-2-(5-(2-(4-(2-((2S)-1-((2S)-2-((methoxycarbonyl)amino)-3-methylbutanoyl)-2-pyrrolidinyl)-4-(trifluoromethyl)-1H-imidazol-5-yl)phenyl)-5-pyrimidinyl)-1H-imidazol-2-yl)-1-pyrrolidinyl)carbonyl)-2-methylpropyl) carbamate]: 9.00 to 12.00. As to `COC(=O)N[C@H](C(=O)N1CCC[C@H]1c1ncc(-c2cnc(-c3ccc(-c4[nH]c([C@@H]5CCCN5C(=O)[C@@H](NC(=O)OC)C5CC5)nc4C(F)(F)F)cc3)nc2)[nH]1)C1CC1` [Example J49, methyl ((1S)-1-cyclopropyl-2-((2S)-2-(5-(4-(5-(2-((2S)-1-((2S)-2-cyclopropyl-2-((methoxycarbonyl)amino)acetyl)-2-pyrrolidinyl)-1H-imidazol-5-yl)-2-pyrimidinyl)phenyl)-4-(trifluoromethyl)-1H-imidazol-2-yl)-1-pyrrolidinyl)-2-oxoethyl)carbamate], the pEC50 is 9.00 to 12.00. The same measure for `COC(=O)N[C@@H](C)C(=O)N1CCC[C@H]1c1ncc(-c2cnc(-c3ccc(-c4[nH]c([C@@H]5CCCN5C(=O)[C@H](C)NC(=O)OC)nc4C(F)(F)F)cc3)nc2)[nH]1` [Example J50, methyl ((1S)-2-((2S)-2-(5-(4-(5-(2-((2S)-1-(N-(methoxycarbonyl)-L-alanyl)-2-pyrrolidinyl)-1H-imidazol-5-yl)-2-pyrimidinyl)phenyl)-4-(trifluoromethyl)-1H-imidazol-2-yl)-1-pyrrolidinyl)-1-methyl-2-oxoethyl)carbamate]: 9.00 to 12.00.
